Experiment [1] deals with mouse embryonic fibroblasts (129 or OG2 MEFs). In words: Screen for iPSC generation from MEFs transduced with Oct4/Klf4 (OK). The class given is cell-based. The following applies: for hit in second synergist screen: OK-transduced MEFs, 1 μM BIX in medium, compound 0.5-2 μM, not followed up. As for the experimental part:
Unmodified MEFs derived from E13-14 embryos of the 129 mice were used for the initial screen. MEFs were plated on Matrigel at 3.5×10^4 cells/well of a 6-well plate and transduced with OK (retroviral vectors expressing Oct4 and Klf4) alone. Within 14-21 days, treated cells were assessed for the appearance of colonies that had the characteristic embryonic stem cell (ESC) colony morphology and were positive for the pluripotency marker alkaline phosphatase (ALP). Such OK-transduced cells generated only a few small non-compact colonies, which were weakly positive for ALP expression. These colonies initially appeared within 21 days after viral transduction and were difficult to expand. Therefore, such assay system offered a clean background for the identification of small molecules having desirable reprogramming inducing activity. Using this system, compounds from a library of around 2000 known small molecules (see Experimental Procedures below) were screened and were identified as hits when they induced the appearance of ESC colonies that were strongly positive for ALP within 14-21 days after treatment. This image-based method provided a more accurate assessment of reprogramming as compared to homogenous reporter-based assay. BIX appeared to have the strongest effect with reproducible induction of more than 1-2 compact ESC-like colonies with high ALP expression. We observed that when MEFs were treated with BIX after OK viral transduction, compact colonies with strong ALP expression could be readily detected within approximately 14-21 days. These cells were also positive for Nanog, Oct4 and SSEA-1 expression. […] However, the reprogramming efficiency in MEFs transduced with OK and treated with BIX was still low, about 2 colonies/3.5×10^4 cells, in comparison to the four factor-induced reprogramming of MEFs or the OK/BIX NPC reprogramming (Shi, Y. et al., Cell Stem Cell, 2:525-528 (2008)). Therefore, we conducted a second screen using a similar protocol, but where BIX was added to the basal media after OK viral transduction. This provided a more permissive platform to identify new small molecules that could further improve reprogramming efficiency. More importantly, this second screen could facilitate discovery of small molecules that impact reprogramming in a more specific manner, for example by acting on signal transduction pathways rather than on histone or DNA modifying enzymes. In this second screen, we again assayed the library of around 2000 known small molecules (see Experimental Procedures), and confirmed two compounds that were able to act in a synergistic manner with BIX to improve reprogramming based on the criteria of the screen. […] Therefore, RG108 was not pursued further for this study. Instead, we focused our phenotypic and functional characterization on another small molecule that was identified in the second screen, BayK, an L-calcium channel agonist. […] Therefore, BayK might play a more specific role in the reprogramming process. When 129 MEFs were transduced with empty retrovirus (negative control); no colonies observed. When 129 MEFs were transduced with OK without small molecules; few small flattened colonies with weak ALP expression present. […] When OK-transduced MEFs were treated with BIX in combination with BayK, a significant increase in the number of ALP^+ colonies that closely resemble the mESC morphology could be observed (˜7 colonies) as compared to OK-transduced MEFs treated with BIX alone (˜2 colonies).
Primary 12952/SvPasCrlf (primary screen) or ROSA26^+/−/OG2^+/− (secondary screen) MEFs were plated onto Matrigel (1:50; BD Biosciences, Bedford, Mass.) coated dishes at a density of 3.5×10^4 cells per well of a 6-well plate. Twenty-four hours later, these cells were transduced overnight with defined retroviruses at 37° C., 5% CO2. […] (all products were from Invitrogen, Carlsbad, Calif., except where mentioned). […]

Experiment [2] concerns human primary fibroblasts (CRL2097 or BJ). In words: Reprogramming of human primary fibroblasts transduced with 4TFs. It is filed as cell-based. How it is done:
We tested known inhibitors of the TGFβ receptor and MEK on 1×10^4 [Feng, B. et al., Cell Stem Cell 4, 301-12 (2009)] human primary fibroblasts (CRL2097 or BJ) that were retrovirally transduced with the 4TFs (Oct4, Klf4, Sox2 and c-Myc), for their effects on reprogramming kinetics and efficiency. On day 7 (D7) post-infection, the compounds were added, individually or in combinations, and the cultures were examined for iPSCs over the next 1-3 weeks.
The Slc7a1-expressing human fibroblast cells were seeded at 1×10^5 cells/well of a 6 well plate on the day 1. On day 2, 0.25 ml of each retroviral supernatant was added to the cells in the presence of 6 μg/ml polybrene. A second round of transduction was done on day 3. Infection efficiency was estimated by fluorescence microscopy on cells transduced in parallel with GFP or RFP gene-carrying retroviruses. Seven days after initial transduction, fibroblasts were harvested by trypsinization and re-plated at 1×10^4 cells/well of a 6 well plate coated with matrigel (1:50 dilution, cat 354234, BD Biosciences). For compound treatment, the cells were cultured in human reprogramming medium (DMEM/F12, 20% Knockout serum replacer, lx MEM Non-Essential amino acid, lx glutamax, 0.11 mM 2-Mercaptoethanol, 20 ng/ml bFGF and 1,000 U/ml LIF) and were treated with 2 μM SB431542 (Stemgent), 0.5 μM PD0325901 (Stemgent), or combinations of the compounds. The media were changed every 2-3 days depending on the cell density. Seven days after compound treatment, either the plates were fixed and stained for Alkaline phosphatase (ALP) activity, or stained for protein markers, or the cultures were continued with or without indicated splitting by trypsinization till day 30. For split cultures, the cells were split (1:4) and re-plated onto irradiated CF-1 MEF feeder layer (2.5×10^5 cells/well) in each well of 6 well plate and were split (1:10) again on day 21. The cells were maintained in the same media and compound cocktail described above except for the concentrations of PD0325901 (0.5 μM for D14 and 1 μM for D21) and SB431542 (0.5-1 μM after D14). The iPSC colonies were subsequently maintained in conventional hESC media in the absence of the above compounds.
Alkaline phosphatase staining was performed using ALP detection kit (cat no: SCR004, Chemicon) according to the product instructions. For immunocytochemistry, cells were fixed in 4% paraformaldehyde (10 min, RT), washed twice with PBS, blocked using 5% normal donkey serum (Chemicon) and 0.1% TritonX-100 (15 min, RT) and then treated with primary antibodies overnight at 4° C. The primary antibodies used were anti-NANOG (cat no: AB9220, Chemicon, 1:1,000); anti-OCT4 (cat no: sc-5279, Santa Cruz biotech, 1:200), anti-SSEA 4 (cat no: mab4304, Chemicon, 1:500), anti-Tra-1-81 (cat 560123, BD Biosciences, 1:100), anti-Tra-1-81 (mAb 4381, Chemicon, 1:500), anti-βIII TUBULIN (cat no: MMS-435P, Covance Research Products Inc, 1:1000), anti-PDX 1 (1:500) (a kind gift from Dr. C. Wright), anti-BRACHYURY (cat No: AF2085, R & D, final concentration 0.2 μg/ml). The cells were washed twice with PBS and then treated with secondary antibodies for 1 hour at room temperature. The secondary antibodies used were Alexa fluor 488 donkey anti-rabbit or anti-mouse IgG (Invitrogen, 1:1,000) and Alexa fluor 555 donkey anti-rabbit or anti-mouse IgG (Invitrogen, 1:1,000). Nuclei were stained with 0.5 μg/ml DAPI (Sigma). Images were captured using a Nikon Eclipse TE2000-U/X-cite 120 EXFO microscope with a photometric CoolSnap HQ2 camera.
We tested the TGFβ receptor inhibitor (SB431542), MEK inhibitor (PD0325901) and GSK-3 inhibitor (CHIR99021), on human fibroblast crl2097 that were retrovirally transduced with Oct4, Klf4, Sox2 and c-Myc, for their effects on reprogramming kinetics and efficiency. Conditions are the same as set forth in Example 5. Data were collected 8 days after compound treatment.

In a further experiment the test system is mouse fibroblasts. As to the kind of experiment: Reprogramming of mouse fibroblasts with exogenous poly-Arg transcription factor proteins. The class given is cell-based. To be noted: cells incubated with transcription factor proteins plus agent. As for the experimental part: Mouse fibroblasts were grown in mESC medium supplemented with 8 μg/ml of either Oct4/Sox2/Klf4 or Oct4/Sox2/Klf4/Myc (all proteins comprising poly-Arg as described above) for 6-8 hours, washed, and incubated for 2-3 days in mESC media without the above-listed transcription factors. This (4-12 hours with, 1-3 days without) was repeated a number (1, 2, 3, 4, or more) of times and then the cells were cultured in mESC for two weeks.
Mouse fibroblasts were grown in mESC growth medium [Knockout DMEM (Invitrogen) supplemented with 10% ES-FBS+10% KSR, 0.1 mM 2-ME, 1% Glutamax, 1% Non-essential amino acids, 1% EmbryoMax ESC Qualified Nucleosides (Millipore), and 10^3 units/ml LIF (ESGRO, Chemicon International)] supplemented with 8 μg/ml of Oct4/Sox2/Klf4/Myc (all four transcription factors are tagged with poly-Arg […]; SEQ ID NO:2) for 4-12 hours, followed by culturing the cells in the absence of the Oct4/Sox2/Klf4/Myc polypeptides for one day. This procedure was repeated 4 times. The cells were then cultured in mESC medium for another two weeks. iPSC clones were detected by colony morphology and expression of pluripotency markers. An intermediate iPSC clone, which expresses ALP but not Oct4 (Oct4), was dissociated with Trypsin-EDTA. The clone was then expanded by continuous culturing with regular mESC medium or medium supplemented with 0.5 μM PD0325901, 3 μM CHIR99021, 0.5 μM A-83-01. The number of Oct4-positive colonies were counted 2 weeks after small molecule treatment (FIG. 14).

For experiment [3], the system named is primary OG2 neural progenitor cells. As to the kind of experiment: iPS cell induction from neural progenitor cells after retroviral transduction. It is filed as cell-based, mouse. To be noted: applied at late stage of reprogramming (after Oct4-GFP activation). As for the experimental part:
The reporter neural progenitor cells were generated using a well established protocol by differentiating the Oct4-GiP mESCs grown in monolayer on gelatin in a chemically defined medium/CDM condition in the absence of serum and other growth factors/cytokines at low cell density for eight days, followed by neurophere formation and subsequent serial passaging in single cells in neural cell expansion media supplemented with 10 ng/ml of bFGF and EGF in monolayer for over six passages/24 days. The resulting neural progenitor cells were homogenous by cell morphology and neural marker expression, and were confirmed to be GFP negative and puromycin sensitive. Such neural progenitor cells plated in monolayer in conventional mESC growth media were transduced with combinations of four, three, or two of the four factors, followed by treating the transduced cells with individual small molecules from a small known drug collection in a typical 6-well format. The compound treatment and culture were continued for additional ten days before puromycin was added. The number of green and puro-resistant colonies was counted at day 14. In comparison to the only four-gene transduced neural cells as the positive control, compound conditions that generated more green colonies than the corresponding gene-only conditions were picked as primary hits. To further confirm these primary hit conditions, we chose to use a late passage of mouse CNS neural progenitor cells (Do, J. T. et al., Stem Cells 25, 1013-1020 (2007)) that were derived from fetal brain of OG2^+/−/ROSA26^+/− transgenic mice (which contain an Oct4-GFP reporter) and expanded in monolayer under the same neural CDM condition as the above with 10 ng/ml of bFGF and EGF. Such cells truly from a non-pluripotent tissue would be devoid of concerns of any contaminating ES cell in the above screening system, which is highly unlikely with all appropriate controls. Similar culture conditions and reprogramming assays were performed using the OG2 neural progenitor cells except that puromycin was not used and green colonies were picked out and characterized by staining of Nanog, SSEA1 and ALP.
mESC-derived or primary OG2 mouse neural progenitor cells were plated into Matrigel (1:50, BD Biosciences) coated 6-well plates at 3.5×10^4 cells/well in the neural progenitor cell expansion media. After one day these cells were transduced with retrovirus for overnight, and the medium was changed into the mESC growth media [DMEM, 5% FBS, 10% KSR, 1× non-essential amino acids (Gibco), 2 mM L-glutamine (Gibco), 0.1 mM β-mercaptoethanol (Gibco) and 10^3 unit/ml LIF (Chemicon)] with or without BIX01294 (0.5-1 μM). GFP-positive iPS cell colonies appeared after 9-14 days, and were picked out and expanded on MEF feeder cells with the mESC growth media.

For `CCN(CC)CCCCNc1ncc2cc(-c3cc(OC)cc(OC)c3)c(NC(=O)NC(C)(C)C)nc2n1` [PD173074], in experiment [1], the “hit in second synergist screen” value is “primary hits”.

Turning to `Cc1cc(Nc2ncc3c(n2)N(C)C(=O)N(c2cc(NC(=O)c4cccc(C(F)(F)F)c4)ccc2C)C3)n(C)n1` [pluripotin], in experiment [1], the “hit in second synergist screen” value is given as “primary hits”.

Turning to TGFβ, the “effect on 4 factor-mediated reprogramming of fibroblasts” value in experiment [2] (addition of TGFβ) was “had an inhibitory effect on 4 factor-mediated reprogramming of fibroblasts”.

Consider `O=C(NOC[C@H](O)CO)c1ccc(F)c(F)c1Nc1ccc(I)cc1F` [PD0325901], for which the “ALP+ colonies with hESC-like morphology (FIG. 7A)” value in experiment [2] (4TFs transduced fibroblasts, 7 days after compound treatment, SB431542 at 2 μM) is “yielded none”. Further, the “colonies stained positive for SSEA4 and NANOG” value in experiment [2] (day 7 post-treatment (D14)) was “no NANOG^+ colonies were observed”. The “efficiency and speed of development of pluripotent cells” value in the experiment with mouse fibroblasts is “improved efficiency and speed of development of pluripotent cells”. The “growth of non-iPS cells and iPS cells (selection)” value in experiment [3] is “inhibits growth of non-iPS cells while it effectively promotes growth and stable reprogramming of iPS cells”.

As to `c1nc2nc(Nc3ccc(N4CCOCC4)cc3)nc(NC3CCCCC3)c2[nH]1` [reversine], in experiment [1], the “hit in second synergist screen” value was “primary hits”.

Turning to `O=C(O)C(Cc1c[nH]c2ccccc12)N1C(=O)c2ccccc2C1=O` (stereo not drawn) [RG108], in experiment [1] (in the presence of BIX), the “reprogramming of OK transduced MEFs (second screen)” value is “enhanced reprogramming of OK transduced MEFs in the presence of BIX”.

(Values after US9771563B2, “Chemical approaches for generation of induced pluripotent stem cells” (The Scripps Research Institute, priority 2008, dated 2017).)
